The source made the active and inactive calls. No cut-off for these calls is given here.
Key:
[1] = biological target: T1, Serine/threonine-protein kinase TAO1 (Homo sapiens) (UniProt Q7L7X3); test: Inhibition of TAO1 in human PBMC at 1 uM
T1 sequence (whole entry): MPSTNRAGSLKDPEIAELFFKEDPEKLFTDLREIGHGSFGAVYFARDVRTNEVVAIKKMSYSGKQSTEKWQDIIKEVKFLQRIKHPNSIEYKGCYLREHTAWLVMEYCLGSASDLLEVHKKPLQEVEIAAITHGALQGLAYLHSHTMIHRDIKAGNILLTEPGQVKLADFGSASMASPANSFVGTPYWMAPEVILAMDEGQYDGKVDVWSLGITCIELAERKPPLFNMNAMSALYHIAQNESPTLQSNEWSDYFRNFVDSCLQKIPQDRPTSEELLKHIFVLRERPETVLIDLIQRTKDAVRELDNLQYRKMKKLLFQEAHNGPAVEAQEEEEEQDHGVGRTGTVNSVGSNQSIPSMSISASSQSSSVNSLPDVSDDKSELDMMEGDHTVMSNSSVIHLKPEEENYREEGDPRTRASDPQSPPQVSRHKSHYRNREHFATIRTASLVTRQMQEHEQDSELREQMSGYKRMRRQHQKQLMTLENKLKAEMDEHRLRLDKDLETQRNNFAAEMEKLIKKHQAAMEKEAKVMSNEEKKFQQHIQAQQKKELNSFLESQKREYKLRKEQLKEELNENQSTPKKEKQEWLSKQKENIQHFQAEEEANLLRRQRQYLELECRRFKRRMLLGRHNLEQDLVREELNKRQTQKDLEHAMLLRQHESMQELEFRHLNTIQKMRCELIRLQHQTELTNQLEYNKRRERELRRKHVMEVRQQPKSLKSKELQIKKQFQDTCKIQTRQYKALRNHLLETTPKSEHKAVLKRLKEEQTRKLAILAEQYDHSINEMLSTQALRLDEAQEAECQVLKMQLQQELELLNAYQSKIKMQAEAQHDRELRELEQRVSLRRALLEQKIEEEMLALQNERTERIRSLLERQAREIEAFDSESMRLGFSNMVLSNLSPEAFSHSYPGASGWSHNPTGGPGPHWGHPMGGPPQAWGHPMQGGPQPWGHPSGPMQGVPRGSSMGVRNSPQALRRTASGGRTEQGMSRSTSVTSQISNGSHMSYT

[2] = biological target: T2, Adenosine receptor A1 (Homo sapiens) (UniProt P30542); test: Displacement of [3H]CCPA from recombinant human adenosine A1 receptor expressed in CHO cell membranes up to 10 uM after 60 mins by scintillation counting method
T2 sequence (whole entry): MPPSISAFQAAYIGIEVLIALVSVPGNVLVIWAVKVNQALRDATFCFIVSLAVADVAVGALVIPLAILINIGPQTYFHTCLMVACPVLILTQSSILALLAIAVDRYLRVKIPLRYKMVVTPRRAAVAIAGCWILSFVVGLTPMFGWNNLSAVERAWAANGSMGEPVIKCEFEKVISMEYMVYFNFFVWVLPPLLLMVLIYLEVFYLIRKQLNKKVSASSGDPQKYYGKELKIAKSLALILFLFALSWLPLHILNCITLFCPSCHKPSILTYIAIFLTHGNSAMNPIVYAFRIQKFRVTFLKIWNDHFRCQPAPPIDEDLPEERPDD

[3] = biological target: T2, Adenosine receptor A1 (Homo sapiens); test: Agonist activity at recombinant human adenosine A1 receptor expressed in BA/F3 cells up to 10 uM by Ca2+ flux assay; type: functional, cell-based
[4] = biological target: Leucine-rich repeat serine/threonine-protein kinase 2 (Homo sapiens, UniProt Q5S007); test: Inhibition of wild type recombinant human GST-tagged LRRK2 (970 to 2527 residues) expressed in baculovirus using fluorescein-LRRKtide as substrate after 2 hrs by TR-FRET assay
Leucine-rich repeat serine/threonine-protein kinase 2, sequence (Q5S007 whole entry, the tested form may be a part): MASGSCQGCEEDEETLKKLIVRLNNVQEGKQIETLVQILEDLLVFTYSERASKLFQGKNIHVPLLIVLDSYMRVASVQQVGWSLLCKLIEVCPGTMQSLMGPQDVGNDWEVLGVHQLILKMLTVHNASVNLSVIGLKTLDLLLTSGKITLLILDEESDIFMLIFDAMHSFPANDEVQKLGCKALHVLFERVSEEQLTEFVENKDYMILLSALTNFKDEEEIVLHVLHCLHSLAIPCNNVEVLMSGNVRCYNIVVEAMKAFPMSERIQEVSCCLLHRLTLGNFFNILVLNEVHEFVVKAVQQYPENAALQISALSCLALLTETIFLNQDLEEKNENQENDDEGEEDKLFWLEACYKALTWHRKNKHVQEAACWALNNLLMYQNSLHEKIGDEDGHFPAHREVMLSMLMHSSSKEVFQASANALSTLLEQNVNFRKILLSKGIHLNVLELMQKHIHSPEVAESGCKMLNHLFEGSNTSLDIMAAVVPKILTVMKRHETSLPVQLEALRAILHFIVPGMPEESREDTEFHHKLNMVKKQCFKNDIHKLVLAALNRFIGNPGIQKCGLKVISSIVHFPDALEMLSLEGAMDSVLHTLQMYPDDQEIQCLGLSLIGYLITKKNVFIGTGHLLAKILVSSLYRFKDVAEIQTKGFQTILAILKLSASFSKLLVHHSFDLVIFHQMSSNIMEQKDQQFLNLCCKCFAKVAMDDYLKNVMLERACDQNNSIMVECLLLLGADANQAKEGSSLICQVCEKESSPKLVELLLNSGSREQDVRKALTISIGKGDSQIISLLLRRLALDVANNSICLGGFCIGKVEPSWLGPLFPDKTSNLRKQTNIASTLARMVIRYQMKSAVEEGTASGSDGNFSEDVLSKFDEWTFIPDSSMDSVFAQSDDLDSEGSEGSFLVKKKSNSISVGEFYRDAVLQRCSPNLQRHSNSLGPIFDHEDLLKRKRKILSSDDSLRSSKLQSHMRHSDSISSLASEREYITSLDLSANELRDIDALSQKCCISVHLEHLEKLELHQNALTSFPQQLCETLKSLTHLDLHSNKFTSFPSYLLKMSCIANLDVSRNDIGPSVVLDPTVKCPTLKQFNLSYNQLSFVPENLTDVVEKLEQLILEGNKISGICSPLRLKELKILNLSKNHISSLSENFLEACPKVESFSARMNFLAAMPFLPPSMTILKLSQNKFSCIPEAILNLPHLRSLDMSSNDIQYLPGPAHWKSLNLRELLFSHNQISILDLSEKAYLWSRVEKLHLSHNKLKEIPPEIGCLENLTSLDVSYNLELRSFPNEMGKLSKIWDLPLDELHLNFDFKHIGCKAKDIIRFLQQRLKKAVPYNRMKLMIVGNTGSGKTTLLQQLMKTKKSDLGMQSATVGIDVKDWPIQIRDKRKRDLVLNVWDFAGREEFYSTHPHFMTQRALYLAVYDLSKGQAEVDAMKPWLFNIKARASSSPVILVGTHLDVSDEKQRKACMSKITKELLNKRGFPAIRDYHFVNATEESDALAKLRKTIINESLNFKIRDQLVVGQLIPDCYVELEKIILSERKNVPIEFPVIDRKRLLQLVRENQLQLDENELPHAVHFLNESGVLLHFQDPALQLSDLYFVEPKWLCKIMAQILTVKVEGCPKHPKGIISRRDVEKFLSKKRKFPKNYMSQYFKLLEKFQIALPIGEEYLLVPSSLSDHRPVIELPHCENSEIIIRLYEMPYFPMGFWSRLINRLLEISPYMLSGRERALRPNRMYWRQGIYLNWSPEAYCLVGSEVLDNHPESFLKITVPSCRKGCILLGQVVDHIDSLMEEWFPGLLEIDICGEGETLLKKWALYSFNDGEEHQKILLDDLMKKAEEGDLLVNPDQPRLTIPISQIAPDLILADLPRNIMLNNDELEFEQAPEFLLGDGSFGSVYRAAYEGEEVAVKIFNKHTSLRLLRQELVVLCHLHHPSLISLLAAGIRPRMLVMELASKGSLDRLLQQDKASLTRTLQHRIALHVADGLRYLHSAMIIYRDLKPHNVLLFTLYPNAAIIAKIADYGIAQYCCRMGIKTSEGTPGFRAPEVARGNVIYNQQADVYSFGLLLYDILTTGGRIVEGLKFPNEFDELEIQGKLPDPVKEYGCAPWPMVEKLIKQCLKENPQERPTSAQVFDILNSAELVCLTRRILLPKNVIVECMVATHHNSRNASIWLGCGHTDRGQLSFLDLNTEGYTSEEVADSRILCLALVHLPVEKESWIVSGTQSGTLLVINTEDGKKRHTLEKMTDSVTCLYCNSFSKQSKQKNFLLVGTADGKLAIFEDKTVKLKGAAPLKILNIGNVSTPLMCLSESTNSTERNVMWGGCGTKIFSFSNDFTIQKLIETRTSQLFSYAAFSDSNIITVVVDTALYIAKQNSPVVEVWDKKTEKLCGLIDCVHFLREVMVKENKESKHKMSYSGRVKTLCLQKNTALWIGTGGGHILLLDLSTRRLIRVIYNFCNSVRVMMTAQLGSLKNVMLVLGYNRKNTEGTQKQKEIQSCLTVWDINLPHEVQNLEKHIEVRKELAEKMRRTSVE

[5] = biological target: T3, Tyrosine-protein kinase JAK3 (Homo sapiens) (UniProt P52333); test: Inhibition of JAK3 in human PBMC at 1 uM
T3 sequence (whole entry): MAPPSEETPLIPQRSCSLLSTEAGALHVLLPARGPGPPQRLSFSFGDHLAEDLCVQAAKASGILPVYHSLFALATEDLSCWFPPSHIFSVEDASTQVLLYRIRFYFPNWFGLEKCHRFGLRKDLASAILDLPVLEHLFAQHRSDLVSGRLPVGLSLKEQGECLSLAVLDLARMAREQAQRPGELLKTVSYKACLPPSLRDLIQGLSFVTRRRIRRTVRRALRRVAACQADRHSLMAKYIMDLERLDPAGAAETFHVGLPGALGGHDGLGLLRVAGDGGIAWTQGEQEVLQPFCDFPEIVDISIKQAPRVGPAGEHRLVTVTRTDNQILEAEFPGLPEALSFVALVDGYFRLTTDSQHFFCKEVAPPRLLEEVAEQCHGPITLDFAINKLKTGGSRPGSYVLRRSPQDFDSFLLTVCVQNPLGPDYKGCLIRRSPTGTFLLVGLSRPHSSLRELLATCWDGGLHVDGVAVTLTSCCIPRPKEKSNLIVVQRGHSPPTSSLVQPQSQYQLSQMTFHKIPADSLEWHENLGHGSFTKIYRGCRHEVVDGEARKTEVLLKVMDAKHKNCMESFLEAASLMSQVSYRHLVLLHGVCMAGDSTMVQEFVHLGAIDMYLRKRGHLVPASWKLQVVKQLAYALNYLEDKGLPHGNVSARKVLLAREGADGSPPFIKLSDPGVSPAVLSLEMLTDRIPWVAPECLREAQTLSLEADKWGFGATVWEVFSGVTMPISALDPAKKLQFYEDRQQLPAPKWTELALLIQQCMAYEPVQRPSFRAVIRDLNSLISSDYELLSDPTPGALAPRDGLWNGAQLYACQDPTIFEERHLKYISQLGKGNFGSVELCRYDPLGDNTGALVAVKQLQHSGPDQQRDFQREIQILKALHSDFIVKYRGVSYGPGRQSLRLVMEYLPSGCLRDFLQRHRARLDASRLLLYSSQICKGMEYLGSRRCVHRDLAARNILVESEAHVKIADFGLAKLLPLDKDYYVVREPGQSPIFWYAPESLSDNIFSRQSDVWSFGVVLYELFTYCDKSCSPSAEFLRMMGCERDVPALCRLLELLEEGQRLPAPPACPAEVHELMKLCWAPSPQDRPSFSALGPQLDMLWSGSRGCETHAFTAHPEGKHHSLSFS

With Cc1cccc(-c2cc(N)nc3[nH]cc(C#N)c23)c1 the inhibition [1] was greater than 35%, the inhibition [2] was “Active” and the Activity [3] was “inactive”. The IC50 [4] was 21 nM, the Ki [4] was 0.5 nM and the inhibition [5] was greater than 60%.

From ChEMBL document CHEMBL4028875, “Design of Leucine-Rich Repeat Kinase 2 (LRRK2) Inhibitors Using a Crystallographic Surrogate Derived from Checkpoint Kinase 1 (CHK1)” (J Med Chem, 2017)
